Reference: patent US8912181B2 (Taiho Pharmaceutical Co., Ltd., priority 2011, dated 2014)
pIC50: −log10 of the molar value.

Columns and labels:
[1] = molecular target: human HSP90 alpha protein (N-terminal, amino acids 2 to 236) (Homo sapiens (Human), UniProt P07900); assay: Determination of HSP90-binding activity (AlphaScreen competitive assay with biotinylated geldanamycin); details: inhibition of binding of biotinylated geldanamycin to purified HSP90 N-terminal protein, read-out: HSP-binding activity IC50
Outline: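 His-tagged N-terminal construct (aa 2–236) expressed in E. coli and purified was preincubated with compound 2 h at room temperature, then biotinylated geldanamycin (40 nM/well) added for 1 h. AlphaScreen nickel-chelate acceptor/streptavidin donor beads, 1 h dark; percent inhibition calculated against no-compound signal.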

[2] = system: SK-BR-3 cells; assay: Determination of cell growth inhibition (crystal violet staining method); type: cell-based; details: Homo sapiens; breast cancer cells SK-BR-3, 72 hours culture with test substance
Outline: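 SK-BR-3 cells seeded 5,000/well, cultured 24 h at 37 °C, then exposed to compound for 72 h. Cells fixed with glutaraldehyde, stained with 0.05% crystal violet, eluted and read at 540 nm; percent growth inhibition calculated versus untreated wells.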

| Compound | pIC50 [1] | pIC50 [2] |
| --- | --- | --- |
| Cn1cc(-c2cn(-c3cccc4c(-c5ccc(C(N)=O)cc5N)nc(C(F)(F)F)nc34)cn2)cn1 [Example 75, 3-Amino-4-(8-(4-(1-methyl-1H-pyrazol-4-yl)-1H-imidazol-1-yl)-2-(trifluoromethyl)quinazolin-4-yl)benzamide] | 6.68 | 6.48 |
| CC(C)(C)Nc1cc(-c2cc(C(F)(F)F)nc3c(-n4cnc(-c5cccnc5)c4)cccc23)ccc1C(N)=O [Example 76, 2-(Tert-butylamino)-4-(8-(4-(pyridin-3-yl)-1H-imidazol-1-yl)-2-(trifluoromethyl)quinolin-4-yl)benzamide] | 6.70 | 7.40 |
| CCNc1cc(-c2cc(C(F)(F)F)nc3c(-n4cnc(-c5cccnc5)c4)cccc23)ccc1C(N)=O [Example 77, 2-(Ethylamino)-4-(8-(4-(pyridin-3-yl)-1H-imidazol-1-yl)-2-(trifluoromethyl)quinolin-4-yl)benzamide] | 6.77 | 8.00 |
| NC(=O)c1ccc(-c2cc(C(F)(F)F)nc3c(-n4cnc(-c5cccnc5)c4)cccc23)cc1N [Example 78, 2-Amino-4-(8-(4-(pyridin-3-yl)-1H-imidazol-1-yl)-2-(trifluoromethyl)quinolin-4-yl)benzamide] | 6.74 | 7.52 |
| Cn1cc(-c2cn(-c3cccc4c(-c5ccc(C(N)=O)c(NC(C)(C)C)c5)nc(C(F)(F)F)nc34)cn2)cn1 [Example 79, 2-(Tert-butylamino)-4-(8-(4-(1-methyl-1H-pyrazol-4-yl)-1H-imidazol-1-yl)-2-(trifluoromethyl)quinazolin-4-yl)benzamide] | 6.49 | 7.70 |
| CCNc1cc(-c2nc(C(F)(F)F)nc3c(-n4cnc(-c5cnn(C)c5)c4)cccc23)ccc1C(N)=O [Example 80, 2-(Ethylamino)-4-(8-(4-(1-methyl-1H-pyrazol-4-yl)-1H-imidazol-1-yl)-2-(trifluoromethyl)quinazolin-4-yl)benzamide] | 6.85 | 7.70 |
| Cn1cc(-c2cn(-c3cccc4c(-c5ccc(C(N)=O)c(Cl)c5)cc(C(F)(F)F)nc34)cn2)cn1 [Example 81, 2-Chloro-4-(8-(4-(1-methyl-1H-pyrazol-4-yl)-1H-imidazol-1-yl)-2-(trifluoromethyl)quinolin-4-yl)benzamide] | 6.06 | 6.12 |
| Cn1cc(-c2cn(-c3cccc4c(-c5ccc(C(N)=O)nc5)cc(C(F)(F)F)nc34)cn2)cn1 [Example 83, 5-(8-(4-(1-Methyl-1H-pyrazol-4-yl)-1H-imidazol-1-yl)-2-(trifluoromethyl)quinolin-4-yl)picolinamide] | 6.68 | 7.00 |
| Cc1cc(C(N)=O)ccc1-c1cc(C(F)(F)F)nc2c(-n3cnc(-c4cnn(C)c4)c3)cccc12 [Example 84, 3-Methyl-4-(8-(4-(1-methyl-1H-pyrazol-4-yl)-1H-imidazol-1-yl)-2-(trifluoromethyl)quinolin-4-yl)benzamide] | 6.66 | 6.96 |
| Cn1cc(-c2cn(-c3cccc4c(-c5ccc(C(N)=O)c(NC(C)(C)C)c5)cc(C(F)(F)F)nc34)cn2)cn1 [Example 86, 2-(Tert-butylamino)-4-(8-(4-(1-methyl-1H-pyrazol-4-yl)-1H-imidazol-1-yl)-2-(trifluoromethyl)quinolin-4-yl)benzamide] | 7.00 | 8.00 |
| CCCNc1cc(C(N)=O)ccc1-c1cc(C(F)(F)F)nc2c(-n3cnc(-c4cnn(C)c4)c3)cccc12 [Example 87, 4-(8-(4-(1-Methyl-1H-pyrazol-4-yl)-1H-imidazol-1-yl)-2-(trifluoromethyl)quinolin-4-yl)-3-(propylamino)benzamide] | 6.55 | 7.10 |
| NC(=O)c1ccc(-c2cc(C(F)(F)F)nc3c(-n4cnc(-c5cccnc5)c4)cccc23)cn1 [Example 88, 5-(8-(4-(Pyridin-3-yl)-1H-imidazol-1-yl)-2-(trifluoromethyl)quinolin-4-yl)picolinamide] | 6.46 | 7.15 |
| CCNc1cc(-c2cc(C(F)(F)F)nc3c(-n4cnc(-c5cnn(CC)c5)c4)cccc23)ccc1C(N)=O [Example 89, 4-(8-(4-(1-Ethyl-1H-pyrazol-4-yl)-1H-imidazol-1-yl)-2-(trifluoromethyl)quinolin-4-yl)-2-(ethylamino)benzamide] | 6.66 | 8.00 |
| CCn1cc(-c2cn(-c3cccc4c(-c5ccc(C(N)=O)c(NC(C)(C)C)c5)cc(C(F)(F)F)nc34)cn2)cn1 [Example 90, 2-(Tert-butylamino)-4-(8-(4-(1-ethyl-1H-pyrazol-4-yl)-1H-imidazol-1-yl)-2-(trifluoromethyl)quinolin-4-yl)benzamide] | 6.24 | 7.52 |
| CC(C)(C)Nc1cc(-c2cc(C(F)(F)F)nc3c(-n4cnc(-c5cnn(C(F)F)c5)c4)cccc23)ccc1C(N)=O [Example 92, 2-(Tert-butylamino)-4-(8-(4-(1-difluoromethyl-1H-pyrazol-4-yl)-1H-imidazol-1-yl)-2-(trifluoromethyl)quinolin-4-yl)benzamide] | 6.10 | 7.70 |
| Cc1cc2c(-n3cnc(-c4cnn(C)c4)c3)cccc2c(-c2ccc(C(N)=O)c(NC(C)(C)C)c2)n1 [Example 93, 2-(Tert-butylamino)-4-(3-methyl-5-(4-(1-methyl-1H-pyrazol-4-yl)-1H-imidazol-1-yl)isoquinolin-1-yl)benzamide] | 7.00 | 7.70 |
| Cc1cc(C(N)=O)ccc1-c1cc(C(F)(F)F)nc2c(-n3cnc(-c4cnn(C(F)F)c4)c3)cccc12 [Example 94, 4-(8-(4-(1-Difluoromethyl-1H-pyrazol-4-yl)-1H-imidazol-1-yl)-2-(trifluoromethyl)quinolin-4-yl)-3-methylbenzamide] | 6.30 | 6.96 |
| Cc1cc2c(-n3cnc(-c4cnn(C)c4)c3)cccc2c(-c2ccc(C(N)=O)cc2C)n1 [Example 95, 3-Methyl-4-(3-methyl-5-(4-(1-methyl-1H-pyrazol-4-yl)-1H-imidazol-1-yl)isoquinolin-1-yl)benzamide] | 6.40 | 5.99 |
| Cn1cc(-c2cn(-c3cccc4c(-c5ccc(C(N)=O)c(NC(C)(C)C)c5)nccc34)cn2)cn1 [Example 96, 2-(Tert-butylamino)-4-(5-(4-(1-methyl-1H-pyrazol-4-yl)-1H-imidazol-1-yl)isoquinolin-1-yl)benzamide] | 6.85 | 7.22 |
| Cc1cc(-c2ccc(C(N)=O)c(NC(C)(C)C)c2)c2cccc(-n3cnc(-c4cnn(C)c4)c3)c2n1 [Example 97, 2-(Tert-butylamino)-4-(2-methyl-8-(4-(1-methyl-1H-pyrazol-4-yl)-1H-imidazol-1-yl)quinolin-4-yl)benzamide] | 6.80 | 7.70 |
| COCCNc1cc(-c2nc(C)cc3c(-n4cnc(-c5cnn(C)c5)c4)cccc23)ccc1C(N)=O [Example 98, 2-(2-Methoxyethylamino)-4-(3-methyl-5-(4-(1-methyl-1H-pyrazol-4-yl)-1H-imidazol-1-yl)isoquinolin-1-yl)benzamide] | 7.10 | 7.70 |
| Cc1ccc(-c2cn(-c3cccc4c(-c5ccc(C(N)=O)c(NC(C)(C)C)c5)cc(C(F)(F)F)nc34)cn2)cn1 [Example 99, 2-(Tert-butylamino)-4-(8-(4-(6-methylpyridin-3-yl)-1H-imidazol-1-yl)-2-(trifluoromethyl)quinolin-4-yl)benzamide] | 6.57 | 7.40 |
| Cc1ccc(-c2cn(-c3cccc4c(-c5ccc(C(N)=O)cc5C)cc(C(F)(F)F)nc34)cn2)cn1 [Example 100, 3-Methyl-4-(8-(4-(6-methylpyridin-3-yl)-1H-imidazol-1-yl)-2-(trifluoromethyl)quinolin-4-yl)benzamide] | 6.47 | 6.59 |
| Cc1cc(-c2ccc(C(N)=O)c(N)c2)c2cccc(-n3cnc(-c4cnn(C)c4)c3)c2n1 [Example 101, 2-Amino-4-(2-methyl-8-(4-(1-methyl-1H-pyrazol-4-yl)-1H-imidazol-1-yl)quinolin-4-yl)benzamide] | 6.92 | 6.92 |
| Cc1cc(-c2ccc(C(N)=O)cc2C)c2cccc(-n3cnc(-c4cnn(C)c4)c3)c2n1 [Example 102, 3-Methyl-4-(2-methyl-8-(4-(1-methyl-1H-pyrazol-4-yl)-1H-imidazol-1-yl)quinolin-4-yl)benzamide] | 6.60 | 6.20 |
| CCc1cc(-c2ccc(C(N)=O)c(NC(C)(C)C)c2)c2cccc(-n3cnc(-c4cnn(C)c4)c3)c2n1 [Example 103, 2-(Tert-butylamino)-4-(2-ethyl-8-(4-(1-methyl-1H-pyrazol-4-yl)-1H-imidazol-1-yl)quinolin-4-yl)benzamide] | 6.92 | 8.00 |
| CCc1cc(-c2ccc(C(N)=O)c(N)c2)c2cccc(-n3cnc(-c4cnn(C)c4)c3)c2n1 [Example 104, 2-Amino-4-(2-ethyl-8-(4-(1-methyl-1H-pyrazol-4-yl)-1H-imidazol-1-yl)quinolin-4-yl)benzamide] | 7.22 | 8.00 |
| Cn1cc(-c2cn(-c3cccc4c(-c5ccc(C(N)=O)c(NC(C)(C)C)c5)cc(C5CC5)nc34)cn2)cn1 [Example 105, 2-(Tert-butylamino)-4-(2-cyclopropyl-8-(4-(1-methyl-1H-pyrazol-4-yl)-1H-imidazol-1-yl)quinolin-4-yl)benzamide] | 6.40 | 7.70 |
| NC(=O)c1ccc(-c2cc(C(F)(F)F)nc3c(-n4cnc(-c5ccccc5)c4)cccc23)cc1N [Example 108, 2-Amino-4-(8-(4-phenyl-1H-imidazol-1-yl)-2-(trifluoromethyl)quinolin-4-yl)benzamide] | 5.43 | 6.47 |
